US20240092778A1, “TOPICAL PHARMACEUTICAL COMPOSITIONS AND METHODS” (PYRAMID BIOSCIENCES, INC., priority 2020, published 2024)
Like-named read-outs stand apart in the source and are kept apart here.

Legend:
[1] = tested on: human skin; assay: Cumulative irritant patch test (RIPT, 21 days) in healthy participants; conditions: occlusive patch, healthy subjects
Source text: The objective of this study was to assess the primary irritancy potential of Compound A mesylate Topical Cream in human skin using a Repeat Insult Patch Testing (RIPT) over twenty-one (21) days.
This RIPT was an open-label, single-arm (cell), randomized, evaluator-blinded study wherein test products were applied under an occlusive dressing to the upper back or upper arm continuously and repeatedly to the same site for a period of 21 days. Three concentrations of The Cream described in Example 13 (0.1%, 0.03%, 0.01%) and Vehicle (Placebo Cream—0%) were applied to the skin of healthy subjects aged 18-70 with a Fitzpatrick Skin Type of I-III. In addition, one site was treated with 0.4 ml of 0.25% sodium lauryl sulfate (SLS) as a positive control and another site was treated with a plain Webril patch (cotton cloth) which served as a negative control. The total daily dose of Compound A received by each subject was 560 μg (0.4 ml of each of the three concentrations/3 different sites) or approximately 8 μg/kg. The evaluator graded the level of irritation for each test site at every study visit and was blinded as to the identity of the test products. The targeted sample size was at least 25 subjects (n=25) at completion.
Approximately 0.4 ml of each test material was spread uniformly onto a 15 mm diameter circular disc of non-absorbing cotton cloth (Webril) using micropipettes or plastic tuberculin syringes. The treated circular disc was applied to the designated skin site (see Randomization Section below) measuring 15 mm in diameter on the upper arm or upper back. In addition to the test products, one site was treated with 0.4 ml of 0.25% sodium lauryl sulfate (SLS) as a positive control and another site was treated with a plain Webril patch (cotton cloth) as a negative control. Each site was covered with an occlusive tape (Blenderm, 3M) and the entire patch fastened to the skin with Scanpor or Hypafix Tape to ensure intimate contact with the skin. The initial patch was applied on Day 0 and grading began on Day 1.
Subjects returned to the testing facility once daily (Monday to Friday). […] Subjects were questioned and assessed for adverse events as well as any changes in their health or concomitant medications at every study visit. […]
All patches were inspected at each study visit and adhesion issues were noted when present. Patch sites were inspected and irritant reactions provoked during the study were recorded daily (Monday-Friday). […]
The CII was calculated for each product as well as the positive and negative control sites. The CII is the ratio calculated by dividing the sum of the cumulative irritation scores (SCS) from all subjects by the number of subjects in the completed panel×the maximum tolerated score per patch site (3)×the number of grading assessments (15).

[2] = tested on: guinea pigs; assay: Contact sensitization; assay type: in vivo, guinea pig
[3] = One-month rat oral toxicity study; assay type: in vivo; conditions: in vivo, oral, for the myocardial findings
Source text: (§1) Toxicity evaluation of Compound A mesylate salt has comprised range-finding and pivotal repeat dose dermal and oral toxicology studies in minipigs, rats and dogs. The dermal route of administration was chosen because it is the intended to be the human therapeutic route. As per International Council for Harmonisation (ICH) guidelines, the oral route was selected in rats and dogs to assess systemic toxicity and to support dermal administration. The minipig was selected as the species for formal dermal toxicology testing of Compound A mesylate salt.
(§2) The NOAEL for these findings was 0.5 mg/kg/day.

[4] = tested on: rats; assay: One-month rat oral toxicity study; assay type: in vivo
Source text: as §1, §2

[5] = tested on: minipigs; assay: Non-GLP 7-day intravenous study; assay type: in vivo, minipig; conditions: daily for 7 days
Procedure: To understand the relationship between potential Compound A mesylate exposure and toxicity (clinical observations), a non-GLP intravenous study was conducted. In this study, minipigs were administered up to 10 mg/kg daily for 7 days by intravenous administration to determine Compound A mesylate exposure and clinical observations. Overall, minipigs tolerated intravenous dose of up to 10 mg/kg/day for 7 seven days without any adverse clinical signs.

[6] = Solubility of Compound A mesylate salt Form B in excipients and buffers; assay type: physicochemical
Procedure: The solubility was determined visually. The approximate amount of drug dissolved was calculated as mg/g of compound soluble in each solvent tested.
The steps involved in performing the solubility study were as follows: • a) Label scintillation vials appropriately for each excipient that were tested. • b) Stir bar was placed in each vial and weighed the empty vial containing stir bar and cap with inert liner. Recorded the TARE weight. • c) Approximately 5.0 g of each excipient was weighed into the designated vial and approximately 5 mg of the API (Compound A mesylate salt) was added to into each vial. • d) All the closed vials were placed on a multi-position stir plate and allowed to mix for at least 15 minutes at ambient conditions. • e) Visually inspected to see if the API has completely dissolved. • f) If the API has dissolved, the last 3 steps were repeated. Additional API aliquots added to the mixture were recorded till saturation solubility reached. […] Stirring the solutions was continued overnight at ambient temperature to confirm solubility is maintained. • g) If API has not completely dissolved, continue stirring samples overnight at ambient conditions. • h) The final weight of the vial, cap, stir bar, and sample were recorded. • i) Further, the final observations were recorded as needed to document the observations.

[7] = tested on: Primary human keratinocytes; assay: Human primary keratinocytes proliferation assay (BrdU incorporation); assay type: cell-based; conditions: for IC50: Homo sapiens, Keratinocyte, read-out: calculated potency (IC50) to block cell proliferation
Procedure: Primary human keratinocytes (KMF112410A) were grown in 96-well plates and exposed to different concentration of Compound A mesylate salt, 0.1 nM to 100 μM, for 24 hours or 72 hours.
After 4 hours, the medium was removed and 100 μL of the Fixing/Denaturing solution (paraformaldehyde) was added to each well and allowed to incubate at room temperature for 30 minutes. After 30 minutes, the fixing solution was removed and 100 μl of the prepared 1× detection antibody (Cell Signaling Assay Kit, Catalogue No. 6813) was added to each well and allowed to incubate at room temperature for 1 hour. The plate was then washed 3 times with prepared wash buffer (details of wash buffer; PBS saline).
After washing, 100 μL of the prepared 1× Horseradish Peroxidase (HRP)-conjugated secondary antibody solution was added to each well and allowed to incubate at room temperature for 30 minutes. The plate was then washed 3 times with prepared wash buffer.
After washing the 100 μL 3,3′,5,5′-Tetramethylbenzidine (TMB) substrate was added to each well and incubated 30 minutes at room temperature. After 30 minutes, 100 μL of stop solution ([…]) was added to each well and the absorbance was read at 450 nm using a microplate Reader SpectraMax iD3 (Molecular Devices). The magnitude of the absorbance for the developed color is proportional to the quantity of BrdU incorporated into cells, which is a direct indication of cell proliferation, and negative control (50% supplemented keratinocyte growth medium alone) was used as reference to evaluate cell proliferation inhibition (levels <100%) or activation (levels >100%).

[8] = tested on: rabbits; assay: Skin irritation (erythema and edema); assay type: in vivo, rabbit
[9] = tested on: bovine cornea; assay: Bovine corneal opacity and permeability (BCOP) assay
[10] = Dog oral toxicity studies (one-month); assay type: in vivo; conditions: in vivo, one-month study
Source text: as §1
(§3) The NOAEL for the one-month study was 2 mg/kg/day.

[11] = tested on: dogs; assay: Dog oral toxicity studies (one-month); assay type: in vivo
Source text: as §1, §3

[12] = 28-day repeat dose dermal toxicity study; assay type: in vivo, minipig; conditions: Gottingen, minipig, in vivo, topical or ocular; for Cmax / AUC(0-t): 1 mg/kg/day dermal, Day 28; for AUC(0-t): read-out: AUC0-Tlast
Source text: as §1
(§4) To support dermal administration of Compound A mesylate, in addition to oral repeat-dose toxicity studies in rats and dogs, dermal toxicity studies in minipigs were conducted. A 28-day repeat dose toxicity study was conducted by dermal application of Compound A mesylate salt at doses in the range of 0.1 mg/kg to 1 mg/kg.
(§5) The 28-day dose toxicity study was initiated at doses in the range of 0.1 to 1.0 mg/kg.

[13] = tested on: Gottingen Minipigs; assay: 28-day repeat dose dermal toxicity study; assay type: in vivo, minipig
Source text: as §1, §4, §5

[14] = Drug excipient compatibility study (physical appearance, % label claim, total impurities); assay type: physicochemical
Procedure: The goal of the drug excipient compatibility study was to identify excipients that are incompatible with the Compound A mesylate salt (Form B), resulting in high impurity growth compared to the baseline (To). The compatibility of the compound in selected excipients was assessed by mixing the compound with individual excipients and placing the mixtures on stability studies for 2 or 4 weeks at 25° C./60% RH and 40° C./75% RH. If the compound was insoluble in any excipient, the sample was prepared by first dissolving Compound A mesylate salt in a solvent (purified water) and then mixing with the excipient in a 1:1 ratio. A stock solution of the Compound A mesylate salt in water (0.45% w/w) was used. The total level of impurities over 4 weeks at the two stability conditions were measured.
Physical appearance of Drug-Excipient mixture was evaluated visually, and the observations were recorded which are summarized in Table 2.
In summary, the compound was stable when mixed with the following chemicals: isopropyl myristate, ethanol, medium chain triglycerides, light mineral oil, cyclomethicone, white petrolatum, span 80, glycerin, sorbitol solution 70%, HPMC, HPC, and stearyl alcohol.

[15] = molecular target: T1, TRKB (Homo sapiens, UniProt Q16620); assay: TRKB activity in cell-based system overexpressing wild-type full-length receptor; conditions: cell-based systems overexpressing wild-type, human TRK receptors
T1 construct: in cell-based systems overexpressing wild-type, full-length, human TRK receptors; expressed in transfected cells
T1 sequence (Q16620 32-822): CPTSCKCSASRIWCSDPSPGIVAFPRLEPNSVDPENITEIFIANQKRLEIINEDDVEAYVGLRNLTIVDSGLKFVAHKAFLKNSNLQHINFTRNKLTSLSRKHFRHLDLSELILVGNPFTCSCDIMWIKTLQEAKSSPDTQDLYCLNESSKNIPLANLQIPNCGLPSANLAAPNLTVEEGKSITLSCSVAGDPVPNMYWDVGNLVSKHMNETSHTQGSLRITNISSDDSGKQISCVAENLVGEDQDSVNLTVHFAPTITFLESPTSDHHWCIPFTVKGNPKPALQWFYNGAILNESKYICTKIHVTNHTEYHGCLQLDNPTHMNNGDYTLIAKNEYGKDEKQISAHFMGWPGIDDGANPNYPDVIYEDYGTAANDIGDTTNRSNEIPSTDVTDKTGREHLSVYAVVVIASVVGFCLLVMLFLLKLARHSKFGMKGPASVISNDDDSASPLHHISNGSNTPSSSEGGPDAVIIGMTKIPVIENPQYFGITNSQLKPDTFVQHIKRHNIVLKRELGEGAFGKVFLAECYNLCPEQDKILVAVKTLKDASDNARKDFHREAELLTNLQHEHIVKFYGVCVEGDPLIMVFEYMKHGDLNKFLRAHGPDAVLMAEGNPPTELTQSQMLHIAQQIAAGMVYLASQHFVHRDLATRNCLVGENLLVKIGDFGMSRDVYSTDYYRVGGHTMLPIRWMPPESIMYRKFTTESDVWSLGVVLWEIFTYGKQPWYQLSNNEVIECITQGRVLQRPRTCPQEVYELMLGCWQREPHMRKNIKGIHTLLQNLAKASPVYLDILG
Source text: (§6) Compound A is a highly specific pan-TRK inhibitor with a mechanism of action that is competitive with the adenosine triphosphate (ATP) binding site of TRKA.

[16] = molecular target: T2, TRKC (Homo sapiens, UniProt Q16288); assay: TRKC activity in cell-based system overexpressing wild-type full-length receptor; conditions: cell-based systems overexpressing wild-type, human TRK receptors
T2 construct: in cell-based systems overexpressing wild-type, full-length, human TRK receptors; expressed in transfected cells
T2 sequence (Q16288 32-839): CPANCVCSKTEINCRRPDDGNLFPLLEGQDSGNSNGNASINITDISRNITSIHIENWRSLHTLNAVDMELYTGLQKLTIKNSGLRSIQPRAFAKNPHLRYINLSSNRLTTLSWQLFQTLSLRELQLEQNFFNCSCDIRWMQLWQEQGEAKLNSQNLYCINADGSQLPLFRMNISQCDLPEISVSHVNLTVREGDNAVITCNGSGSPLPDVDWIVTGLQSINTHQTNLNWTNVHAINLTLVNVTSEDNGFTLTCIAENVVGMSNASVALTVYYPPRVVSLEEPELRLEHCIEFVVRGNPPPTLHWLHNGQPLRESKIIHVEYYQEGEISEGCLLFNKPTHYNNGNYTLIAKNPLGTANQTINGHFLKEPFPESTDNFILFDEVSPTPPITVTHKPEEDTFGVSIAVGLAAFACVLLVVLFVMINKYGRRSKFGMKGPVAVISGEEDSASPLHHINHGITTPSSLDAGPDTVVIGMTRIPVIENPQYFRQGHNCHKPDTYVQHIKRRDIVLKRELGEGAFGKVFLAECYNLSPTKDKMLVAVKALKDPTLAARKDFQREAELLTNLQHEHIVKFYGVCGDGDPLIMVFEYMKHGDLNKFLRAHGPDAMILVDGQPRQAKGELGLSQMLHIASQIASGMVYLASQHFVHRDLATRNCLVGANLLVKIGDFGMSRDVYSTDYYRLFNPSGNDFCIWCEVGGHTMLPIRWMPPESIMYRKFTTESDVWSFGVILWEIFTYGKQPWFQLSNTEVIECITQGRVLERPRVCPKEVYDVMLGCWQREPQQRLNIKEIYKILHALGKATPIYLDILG
Source text: as §6

[17] = molecular target: T3, TRKA (Homo sapiens, UniProt P04629); assay: TRKA inhibition in cells (IC50); assay type: cell-based; conditions: read-out: half maximal inhibitory concentration (IC50) for TRKA
T3 construct: host or cells: cells, not specified
T3 sequence (P04629 33-796): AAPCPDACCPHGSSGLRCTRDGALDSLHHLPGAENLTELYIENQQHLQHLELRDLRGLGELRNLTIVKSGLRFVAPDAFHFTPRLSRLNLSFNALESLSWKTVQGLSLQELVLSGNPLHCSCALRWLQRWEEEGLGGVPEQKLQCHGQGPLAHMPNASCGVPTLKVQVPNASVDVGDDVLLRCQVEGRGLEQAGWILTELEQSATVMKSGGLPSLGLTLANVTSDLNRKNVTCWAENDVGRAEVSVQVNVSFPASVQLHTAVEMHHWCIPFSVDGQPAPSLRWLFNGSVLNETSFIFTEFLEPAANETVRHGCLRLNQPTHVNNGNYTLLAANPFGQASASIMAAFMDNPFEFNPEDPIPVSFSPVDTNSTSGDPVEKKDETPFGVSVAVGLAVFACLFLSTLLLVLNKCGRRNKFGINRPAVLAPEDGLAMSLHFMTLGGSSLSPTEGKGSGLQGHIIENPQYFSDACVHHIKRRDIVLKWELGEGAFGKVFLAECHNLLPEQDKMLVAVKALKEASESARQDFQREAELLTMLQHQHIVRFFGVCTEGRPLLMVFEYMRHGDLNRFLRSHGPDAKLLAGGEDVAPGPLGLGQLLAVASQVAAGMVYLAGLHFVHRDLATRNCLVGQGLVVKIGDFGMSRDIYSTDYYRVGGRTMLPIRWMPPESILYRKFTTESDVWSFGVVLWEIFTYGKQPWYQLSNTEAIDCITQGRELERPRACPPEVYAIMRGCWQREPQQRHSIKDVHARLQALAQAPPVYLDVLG
Source text: as §6

[18] = tested on: adults with recurrent glioblastoma multiforme (GBM); conditions: up to 60 mg daily; cited from earlier work
[19] = tested on: Primary human keratinocytes; conditions: at their respective concentration (Dox 1 μM) after 24 and 72 hours of exposure
Procedure: Cell death/apoptosis was determined by Propidium Iodide (PI) and Annexin V staining.
For the cell death/apoptosis, human primary neonatal keratinocytes were cultured (5,000 cells/well) in clear bottom 96-well plates overnight. The next morning, growth medium was removed and replaced with 50% supplemented keratinocyte growth medium containing compounds and controls.
After 24 or 72 hours treatment, 200 μL of the prepared 1:100 Annexin V (Biovision, catalog number K101) and PI in 1× binding buffer solution was added to each of the wells and allowed to incubate at room temperature for 5 minutes. Cells were then washed with DPBS (Dulbecco's Phosphate-Buffered Saline) and fixed for 30 minutes in 2% Paraformaldehyde (PFA). Following fixation, cells were washed 3× with 200 μL of DPBS. A final volume of 100 μL of DPBS were added to the wells. Quantification of Annexin V and PI were assessed using the Array Scan High Content Imaging System (ThermoFisher).
The signal quantified for Annexin V, an early apoptosis event marker (FIG. 5) and PI to assess cell death (apoptosis and necrosis) was compared to negative control (50% supplemented media) to determine the percentage of viability (FIG. 6).

[20] = T = 0 (Table 3a, 25° C./60% RH)
[21] = T = 0 (Table 3b, 40° C./75% RH)

CCCCCCCCCCCCOS(=O)(=O)[O-].[Na+] [0.25% Sodium Lauryl Sulfate, sodium lauryl sulfate]
Cumulative Irritation Index (CII) [1]: 0.24 | Mean Cumulative Irritation Score [1]: 10.89 | Mean Daily Score [1]: 0.73 | Sum of Cumulative Scores [1]: 294

CC(C)Oc1cc(-n2cnc3ccc(N[C@@H](C)c4ncc(F)cn4)nc32)n[nH]1.CS(=O)(=O)O [Compound A mesylate salt, N-[(1S)-1-(5-fluoropyrimidin-2-yl)ethyl]-3-(5-isopropoxy-1H-pyrazol-3-yl)-3H-imidazo[4,5-b]pyridin-5-amine mesylate]
contact sensitization [2]: not considered to be contact sensitizers | NOAEL at 1 month [3]: 0.5 mg/kg/day | histopathological findings [4]: myocardial inflammation, fibrosis and increased plasma phosphate and Troponin I in a minority of animals | food consumption and body weight gain ([4]; all dose levels): marked increase | tolerated intravenous dose without any adverse clinical signs [5]: up to 10 mg/kg/day | Solubility ([6]; in Ethanol, 24 hours at room temperature, visual): ≥6.61 mg/g | water solubility ([6]; in water): ~9.5 % w/w | Observation ([6]; solubility study in Citrate buffer (pH 5.6)): Aggregated | Observation ([6]; solubility study in Ethanol): Solubilized | Observation ([6]; solubility study in Phosphate buffer (pH 7.4)): Aggregated | IC50 ([7]; 24 hours): 1250 nM | IC50 ([7]; 72 hours): 97 nM | dose showing significant inhibition of proliferation ([7]; after 24 hours of treatment): ≥ 100 nM | dose showing significant inhibition of proliferation ([7]; after 72 h treatment): ≥ 10 nM | irritation (erythema and edema) [8]: non-irritant | ocular irritation [9]: did not induce ocular irritation | NOAEL at 1 month [10]: 2 mg/kg/day | effects on body weight, food consumption, clinical pathology, or histopathology [11]: no compound-related effects | tolerability ([11]; episodes of emesis and soft/fluid feces): generally well tolerated | NOAEL at 28 days ([12]; both sexes, dermal, 28 days): 1 mg/kg/day | Cmax ([12]; female, females): 2.52 ng/mL | AUC(0-t) ([12]; female, females): 37.2 ng·h/mL | Cmax ([12]; male, males): 3.03 ng/mL | AUC(0-t) ([12]; male, males): 32.6 ng·h/mL | tolerability of dermal application ([13]; 0.1, 0.3, and 1 mg/kg/day for 28 consecutive days): well tolerated | systemic exposure after dermal administration compared to intravenous administration ([13]; minipigs): significantly lower | % Label Claim [14, 20]: 99.9% | Total Impurities (%) [14, 20]: 0.00% | % Label Claim [14, 21]: 99.9% | Total Impurities (%) [14, 21]: 0.00% | % Label Claim ([14]; T = 2 weeks, 25° C./60% RH): 99.2% | Total Impurities (%) ([14]; T = 2 weeks, 25° C./60% RH): 0.00% | % Label Claim ([14]; T = 2 weeks, 40° C./75% RH): 99.7% | Oxidation Adjusted ([14]; T = 2 weeks, 40° C./75% RH): 0.00 | Total Impurities (%) ([14]; T = 2 weeks, 40° C./75% RH): 0.00% | % Label Claim ([14]; T = 4 weeks, 25° C./60% RH): 100.5% | Total Impurities (%) ([14]; T = 4 weeks, 25° C./60% RH): 0.00% | % Label Claim ([14]; T = 4 weeks, 40° C./75% RH): 99.1% | Oxidation Adjusted ([14]; T = 4 weeks, 40° C./75% RH): 0.00 | Total Impurities (%) ([14]; T = 4 weeks, 40° C./75% RH): 0.00%

CC(C)Oc1cc(-n2cnc3ccc(N[C@@H](C)c4ncc(F)cn4)nc32)n[nH]1 [Compound A, N-[(1S)-1-(5-fluoropyrimidin-2-yl)ethyl]-3-(5-isopropoxy-1H-pyrazol-3-yl)-3H-imidazo[4,5-b]pyridin-5-amine]
in-vitro activity against TRKB, concentration [15]: below 5 nM | in-vitro activity against TRKC, concentration [16]: below 5 nM | IC50 [17]: 0.2 nM | early efficacy signals in GBM patients [18]: No early efficacy signals

COC(=O)[C@@]1(O)C[C@H]2O[C@]1(C)n1c3ccccc3c3c4c(c5c6ccccc6n2c5c31)C(=O)NC4 [Compound K252a]
cell death (Annexin V / PI) versus negative control [19]: significant cell death
